Reference: US20120027687A1, “FATTY ACID PROTEIN KINASE C ACTIVATORS AND ANTICOAGULANT FOR THE TREATMENT OF STROKE” (priority 2010, published 2012)

What was measured:
[1] = tested on: Endothelin-converting enzyme (ECE); assay: Endothelin-converting enzyme (ECE) activity in neuroblastoma cells; type: cell-based, human; settings: bryostatin 0.27 nM, BR-101 1 μM, BR-111 1 μM
Method: ECE assay. […] neuroblastoma cells were incubated with bryostatin (0.27 nM), BR-101 (DCP-LA) (1 μM), and BR-111 (DHA-CP6) (1 μM). Endothelin-converting enzyme (ECE) was measured fluorimetrically using the method of Johnson and Ahn (Anal. Biochem. (2000), vol. 286, pp. 112-118). A sample of cell homogenate (20 μl) was incubated in 50 mM MES-KOH, pH 6.0, 0.01% C12E10 (polyoxyethylene-10-lauryl ether), and 15 μM McaBK2 (7-Methoxycoumarin-4-acetyl [Ala7-(2,4-Dinitrophenyl)Lys9]-bradykinin trifluoroacetate salt) (Sigma-Aldrich). After 60 min at 37° C., the reaction was quenched by adding trifluoroacetic acid to 0.5%. The sample was diluted to 1.4 ml with water and the fluorescence was measured at ex=334 nm, em=398 nm.

PKCα = target: T1, PKCα (Homo sapiens, UniProt P17252); assay: PKC assay with PKCα; type: biochemical; settings: data not shown
T1 construct: purchased Calbiochem
Method: PKC assay. Recombinant PKC (1 ng of PKCα or PKCε isoform) was mixed with BR-101 (DCP-LA) in the presence of 10 micromolar histones, 5 mM CaCl2, 1.2 μg/μl phosphatidyl-L-serine, 0.18 μg/μl 1,2-dioctanoyl-sn-glycerol (DAG), 10 mM MgCl2, 20 mM HEPES (pH 7.4), 0.8 mM EDTA, 4 mM EGTA, 4% glycerol, 8 μg/ml aprotinin, 8 μg/ml leupeptin, and 2 mM benzamidine. 0.5 micro Ci[^γ32P]ATP was added. The incubation mixture was incubated for 15 min at 37 degrees in a total volume of 10 microliters. The reaction was stopped by spotting the reaction mixtures on 1×2 cm strips of cellulose phosphate paper (Whatman P81) and immediately washing twice for 1 hr in 0.5% H3PO4. The cellulose phosphate strips were counted in a scintillation counter. In some experiments, phosphatidylserine, diacylglycerol, and/or calcium were removed.
(§1) Protein kinase C assay. […] 0.5 Ci [^γ32P]ATP was added and ^32P-phosphoprotein formation was measured by adsorption onto phosphocellulose as described previously. […] PKC activity was measured in the absence of diacylglycerol and phosphatidylserine and PKC δ, ε, η, and μ were measured in the absence of added EGTA and CaCl2, as described by Kanno et al. (J. Lipid Res. 2006, vol. 47, pp. 1146-1150). […]
To determine their PKC isozyme specificity, fatty acid derivatives were preincubated with purified PKC for five minutes and the PKC activity was measured radiometrically.

PKC = PKC activation over time in hippocampal primary neurons; type: cell-based, rat
Method: Cell culture. Rat hippocampal H19-7/IGF-IR cells (ATCC, Manassas, Va.) were plated onto poly-L-lysine coated plates and grown at 35° C. in DMEM/10% FCS for several days until about 50% coverage was obtained. The cells were then induced to differentiate into a neuronal phenotype by replacing the medium with 5 ml N2 medium containing 10 ng/ml basic fibroblast growth factor at 39° C. and grown in T-75 flasks at 37° C. Human SH-SY5Y neuroblastoma cells (ATCC) were cultured in 45% F12K/45% MEM/10% FCS. Mouse N2A neuroblastoma cells were cultured in DMEM/10% FCS without glutamine. Rat hippocampal neurons from 18-day-old embryonic Sprague Dawley rat brains were plated on 12- or 96-well plates coated with poly-D-lysine (Sigma-Aldrich, St. Louis, Mo.) in B-27 neurobasal medium containing 0.5 mM glutamine and 25 μM glutamate (Invitrogen, Carlsbad, Calif.) and cultured for three days in the medium without glutamate. The neuronal cells were grown under 5% CO2 in an incubator maintained at 37° C. for 14 days.
as §1

[2] = tested on: SH-SY5Y neuroblastoma cells; assay: Cell survival and proliferation (alamar Blue, CyQuant); type: cell-based, human; settings: alamar Blue and CyQuant staining
Method: Aβ Measurement and Cell Viability Assay. Aβ was measured using an Aβ 1-42 human fluorimetric ELISA kit (Invitrogen) according to the manufacturer's instructions. Results were measured in a Biotek Synergy HT microplate reader. AlamarBlue and CyQuant NF (Invitrogen) according to the manufacturer's instructions.

TACE = TACE activity in neuronal cells; type: cell-based, human, mouse; settings: SH-SY5Y cells, N2a cells, primary neurons from rat hippocampus
Method: TACE Assay. TACE was measured by incubating 5 μl cell homogenate, 3 μl buffer (50 mM Tris-HCl 7.4 plus 25 mM NaCl plus 4% glycerol), and 1 μl of 100 μM TACE substrate (Aβz-[…]-DPa) (Calbiochem) for 20 min at 37° C. 1.5-ml polypropylene centrifuge tubes. Jin et al., Anal. Biochem. (2002), vol. 302, pp. 269-275. The reaction was stopped by cooling to 4° C. The samples were diluted to 1 ml and the fluorescence was rapidly measured (ex=320 nm, em=420 nm) in a Spex Fluorolog 2 spectrofluorometer.

Structure (SMILES): CCCCCC1CC1CC1CC1CCCCCCCC(=O)O (stereo not shown) [BR-101, 2-[(2-pentylcyclopropyl)methyl]cyclopropaneoctanoic acid]
- ECE activity [1]: sustained increase
- effect on PKCα at higher concentrations (PKCα; 50-100 μM): activated
- effect on PKCα (PKCα): not affected
- duration of elevated PKC (PKC): remained elevated for at least four hours
- effect on cell survival [2]: no effect
- effect on proliferation [2]: no effect
- TACE activity (TACE): small increases
